This note sets out measurements from patent US9029325B2, “Amylin analogues and pharmaceutical compositions thereof” (Novo Nordisk A/S, priority 2011, dated 2015).

Structures are written as SMILES. Starred links: 1 amine or outer side, 2 acyl side, 3 side chain; linkers in the order of their positions; H or OH if unused. Positions of bridges follow the written chain, without caps; N, C: chain ends. Residues, ends and D or L forms follow the SMILES beside them. Groups on a side chain read outwards from the residue. *: point of attachment. C20 diacid = O=C(O)CCCCCCCCCCCCCCCCCCC(=O)*; C18 diacid = O=C(O)CCCCCCCCCCCCCCCCC(=O)*; γGlu = O=C(O)[C@H](CCC(=O)[*:2])N[*:1]; AEEA = NCCOCCOCC(=O)O

A short description of the experiment: Assay (I) efficacy testing on appetite (food intake), ad libitum fed rat model. Type of experiment: in vivo, Sprague Dawley (SD) rats. The text has this:
Sprague Dawley (SD) rats from Taconic Europe, Denmark are used for the experiments. The rats have a body weight 200-250 g at the start of experiment. The rats arrive at least 10-14 days before start of experiment to allow acclimatization to experimental settings. During this period the animals are handled at least 2 times. After arrival rats are housed individually for one week in a reversed light/dark phase (meaning that lights are off during daytime and on during nighttime) […]. Since rats are normally active and eat their major part of their daily food intake during the dark period, rats are dosed in the morning right before lights are turned off. This set-up results in the lowest data variation and highst test sensitivity. The experiment is conducted in the rats' home cages and rats have free access to food and water througout the acclimatization period and the experiment period. Each dose of derivative is tested in a group of 5-8 rats. A vehicle group of 6-8 rats is included in each set of testing. Rats are dosed once according to body weight with a 0.01-3 mg/kg solution administered intraperitoneally (ip), orally (po) or subcutaneously (sc). The time of dosing is recorded for each group. After dosing, the rats are returned to their home cages, where they then have access to food and water. The food consumption is recorded individually continuously by on-line registration or manually every hour for 7 hours, and then after 24 h and sometimes 48 h. At the end of the experimental session, the animals are euthanised.
The individual data are recorded in Microsoft excel sheets. Outliers are excluded after applying the Grubbs statistical evaluation test for outliers, and the result is presented graphically using the GraphPad Prism program.

With `CC[C@H](C)[C@H](NC(=O)[C@@H]1CCCN1C(=O)CNC(=O)[C@H](Cc1ccccc1)NC(=O)[C@H](CC(N)=O)NC(=O)[C@H](CC(N)=O)NC(=O)[C@H](CO)NC(=O)[C@H](CO)NC(=O)[C@H](Cc1c[nH]cn1)NC(=O)[C@H](Cc1c[nH]cn1)NC(=O)[C@H](CC(C)C)NC(=O)[C@H](Cc1ccccc1)NC(=O)[C@H](CCC(=O)O)NC(=O)[C@H](C)NC(=O)[C@H](CC(C)C)NC(=O)[C@H](CCCNC(=N)N)NC(=O)[C@H](CCC(N)=O)NC(=O)[C@@H](NC(=O)[C@H](C)NC(=O)[C@@H]1CSSC[C@H](NC(=O)[C@H](CCCCN)NC(=O)CC[C@H](NC(=O)CCCCCCCCCCCCCCCCCCC(=O)O)C(=O)O)C(=O)N[C@@H](CC(N)=O)C(=O)N[C@@H]([C@@H](C)O)C(=O)N[C@@H](C)C(=O)N[C@@H]([C@@H](C)O)C(=O)N1)[C@@H](C)O)C(=O)N[C@@H](CC(C)C)C(=O)N1CCC[C@H]1C(=O)N1CCC[C@H]1C(=O)N[C@H](C(=O)N[C@@H](CC(N)=O)C(=O)N[C@H](C(=O)NCC(=O)N[C@@H](CO)C(=O)N[C@@H](Cc1c[nH]cn1)C(=O)N[C@H](C(=O)N[C@@H](Cc1ccc(O)cc1)C(N)=O)[C@@H](C)O)C(C)C)[C@@H](C)O` [Example 55, N-alpha-[(S)-4-Carboxy-4-(19-carboxynonadecanoylamino)butyryl]-[Glu14,His17,His 35]-pramlintide] ({C20 diacid-γGlu}-KCNTATCATQRLAEFLHHSSNNFGPILPPTNVGSHTY-NH2; disulfide 2-7 (inferred); C-terminus assumed), under “0-24 h”, the “Food intake reduction 0-24 h 3 nmol/kg (%)” value is 58%. For the setting “24-48 h”, the “Food intake reduction 24-48 h 3 nmol/kg (%)” value is 40%. The “Food intake reduction 0-24 h 30 nmol/kg (%)” value (30 nmol/kg, 0-24 h) is on record as 88%. For the same compound, under “30 nmol/kg, 24-48 h”, the “Food intake reduction 24-48 h 30 nmol/kg (%)” value was determined as 90%.

Regarding `CC[C@H](C)[C@H](NC(=O)[C@H](CCCCNC(=O)COCCOCCNC(=O)COCCOCCNC(=O)CC[C@H](NC(=O)CCCCCCCCCCCCCCCCC(=O)O)C(=O)O)NC(=O)CNC(=O)[C@H](Cc1ccccc1)NC(=O)[C@H](CC(N)=O)NC(=O)[C@H](CC(N)=O)NC(=O)[C@H](CO)NC(=O)[C@H](CO)NC(=O)[C@H](Cc1c[nH]cn1)NC(=O)[C@H](Cc1c[nH]cn1)NC(=O)[C@H](CC(C)C)NC(=O)[C@H](Cc1ccccc1)NC(=O)[C@H](CCC(=O)O)NC(=O)[C@H](C)NC(=O)[C@H](CC(C)C)NC(=O)[C@H](CCCNC(=N)N)NC(=O)[C@H](CCC(N)=O)NC(=O)[C@@H](NC(=O)[C@H](C)NC(=O)[C@@H]1CSSC[C@H](NC(=O)[C@@H](N)CCCCN)C(=O)N[C@@H](CC(N)=O)C(=O)N[C@@H]([C@@H](C)O)C(=O)N[C@@H](C)C(=O)N[C@@H]([C@@H](C)O)C(=O)N1)[C@@H](C)O)C(=O)N[C@@H](CC(C)C)C(=O)N1CCC[C@H]1C(=O)N1CCC[C@H]1C(=O)N[C@H](C(=O)N[C@@H](CC(N)=O)C(=O)N[C@H](C(=O)NCC(=O)N[C@@H](CO)C(=O)N[C@@H](CC(N)=O)C(=O)N[C@H](C(=O)N[C@@H](Cc1ccc(O)cc1)C(N)=O)[C@@H](C)O)C(C)C)[C@@H](C)O` [compound 73] (H-KCNTATCATQRLAEFLHHSSNNFGK([AEEA-AEEA-γGlu-C18 diacid])ILPPTNVGSNTY-NH2; disulfide 2-7 (inferred); N-terminus and C-terminus assumed), the “Food intake reduction 0-24 h 3 nmol/kg (%)” value (0-24 h) was 29%. The “Food intake reduction 24-48 h 3 nmol/kg (%)” value (24-48 h) is listed as 2%.

Regarding `CC[C@H](C)[C@H](NC(=O)[C@@H]1CCCN1C(=O)CNC(=O)[C@H](Cc1ccccc1)NC(=O)[C@H](CC(N)=O)NC(=O)[C@H](CC(N)=O)NC(=O)[C@H](CO)NC(=O)[C@H](CO)NC(=O)[C@H](Cc1c[nH]cn1)NC(=O)[C@H](Cc1c[nH]cn1)NC(=O)[C@H](CC(C)C)NC(=O)[C@H](Cc1ccccc1)NC(=O)[C@H](CCC(=O)O)NC(=O)[C@H](C)NC(=O)[C@H](CC(C)C)NC(=O)[C@H](CCCNC(=N)N)NC(=O)[C@H](CCC(N)=O)NC(=O)[C@@H](NC(=O)[C@H](C)NC(=O)[C@@H]1CSSC[C@H](NC(=O)[C@H](Cc2c[nH]cn2)NC(=O)[C@H](Cc2c[nH]cn2)NC(=O)CC[C@H](NC(=O)CCCCCCCCCCCCCCCCCCC(=O)O)C(=O)O)C(=O)N[C@@H](CC(N)=O)C(=O)N[C@@H]([C@@H](C)O)C(=O)N[C@@H](C)C(=O)N[C@@H]([C@@H](C)O)C(=O)N1)[C@@H](C)O)C(=O)N[C@@H](CC(C)C)C(=O)N1CCC[C@H]1C(=O)N1CCC[C@H]1C(=O)N[C@H](C(=O)N[C@@H](CC(N)=O)C(=O)N[C@H](C(=O)NCC(=O)N[C@@H](CO)C(=O)N[C@@H](CC(N)=O)C(=O)N[C@H](C(=O)N[C@@H](Cc1ccc(O)cc1)C(N)=O)[C@@H](C)O)C(C)C)[C@@H](C)O` [compound 17] ({C20 diacid-γGlu}-HHCNTATCATQRLAEFLHHSSNNFGPILPPTNVGSNTY-NH2; disulfide 3-8 (inferred); C-terminus assumed), under “0-24 h”, the “Food intake reduction 0-24 h 3 nmol/kg (%)” value was found to be 40%. The “Food intake reduction 24-48 h 3 nmol/kg (%)” value (24-48 h) is 22%.

Turning to `CC[C@H](C)[C@H](NC(=O)[C@@H]1CCCN1C(=O)CNC(=O)[C@H](Cc1ccccc1)NC(=O)[C@H](CC(N)=O)NC(=O)[C@H](CC(N)=O)NC(=O)[C@H](CO)NC(=O)[C@H](CO)NC(=O)[C@H](Cc1c[nH]cn1)NC(=O)[C@H](Cc1c[nH]cn1)NC(=O)[C@H](CC(C)C)NC(=O)[C@H](Cc1ccccc1)NC(=O)[C@H](CCC(=O)O)NC(=O)[C@H](C)NC(=O)[C@H](CC(C)C)NC(=O)[C@H](CCCNC(=N)N)NC(=O)[C@H](CCC(N)=O)NC(=O)[C@@H](NC(=O)[C@H](C)NC(=O)[C@@H]1CSSC[C@H](NC(=O)[C@H](CCCCN)NC(=O)CC[C@H](NC(=O)CCCCCCCCCCCCCCCCCCC(=O)O)C(=O)O)C(=O)N[C@@H](CC(N)=O)C(=O)N[C@@H]([C@@H](C)O)C(=O)N[C@@H](C)C(=O)N[C@@H]([C@@H](C)O)C(=O)N1)[C@@H](C)O)C(=O)N[C@@H](CC(C)C)C(=O)N1CCC[C@H]1C(=O)N1CCC[C@H]1C(=O)N[C@H](C(=O)N[C@@H](CC(N)=O)C(=O)N[C@H](C(=O)NCC(=O)N[C@@H](CO)C(=O)N[C@@H](CC(N)=O)C(=O)N[C@H](C(=O)N[C@@H](Cc1ccc(O)cc1)C(N)=O)[C@@H](C)O)C(C)C)[C@@H](C)O` [Example 27, N-alpha-[(S)-4-Carboxy-4-(19-carboxynonadecanoylamino)butyryl]-[Glu14,His17]-pramlintide] ({C20 diacid-γGlu}-KCNTATCATQRLAEFLHHSSNNFGPILPPTNVGSNTY-NH2; disulfide 2-7), where the note is “0-24 h”, the “Food intake reduction 0-24 h 3 nmol/kg (%)” value is 56%. Moreover, the “Food intake reduction 24-48 h 3 nmol/kg (%)” value (24-48 h) was 53%.

Regarding `CC[C@H](C)[C@H](NC(=O)[C@@H]1CCCN1C(=O)CNC(=O)[C@H](Cc1ccccc1)NC(=O)[C@H](CC(N)=O)NC(=O)[C@H](CC(N)=O)NC(=O)[C@H](CO)NC(=O)[C@H](CO)NC(=O)[C@H](CCCNC(=N)N)NC(=O)[C@H](Cc1c[nH]cn1)NC(=O)[C@H](CC(C)C)NC(=O)[C@H](Cc1ccccc1)NC(=O)[C@H](CCC(=O)O)NC(=O)[C@H](C)NC(=O)[C@H](CC(C)C)NC(=O)[C@H](CCCNC(=N)N)NC(=O)[C@H](CCC(N)=O)NC(=O)[C@@H](NC(=O)[C@H](C)NC(=O)[C@@H]1CSSC[C@H](NC(=O)CC[C@H](NC(=O)CCCCCCCCCCCCCCCCCCC(=O)O)C(=O)O)C(=O)NCC(=O)N[C@@H]([C@@H](C)O)C(=O)N[C@@H](C)C(=O)N[C@@H]([C@@H](C)O)C(=O)N1)[C@@H](C)O)C(=O)N[C@@H](CC(C)C)C(=O)N1CCC[C@H]1C(=O)N1CCC[C@H]1C(=O)N[C@H](C(=O)N[C@@H](CCC(=O)O)C(=O)N[C@H](C(=O)NCC(=O)N[C@@H](CO)C(=O)NCC(=O)N[C@H](C(=O)N[C@@H](Cc1ccc(O)cc1)C(N)=O)[C@@H](C)O)C(C)C)[C@@H](C)O` [compound 3] ({C20 diacid-γGlu}-CGTATCATQRLAEFLHRSSNNFGPILPPTEVGSGTY-NH2; disulfide 1-6 (inferred); C-terminus assumed), under “0-24 h”, the “Food intake reduction 0-24 h 3 nmol/kg (%)” value was found to be 37%. Moreover, the “Food intake reduction 24-48 h 3 nmol/kg (%)” value (24-48 h) came out at 32%.

With `CC[C@H](C)[C@H](NC(=O)[C@@H]1CCCN1C(=O)CNC(=O)[C@H](Cc1ccccc1)NC(=O)[C@H](CC(N)=O)NC(=O)[C@H](CC(N)=O)NC(=O)[C@H](CO)NC(=O)[C@H](CO)NC(=O)[C@H](Cc1c[nH]cn1)NC(=O)[C@H](Cc1c[nH]cn1)NC(=O)[C@H](CC(C)C)NC(=O)[C@H](Cc1ccccc1)NC(=O)[C@H](CCC(=O)O)NC(=O)[C@H](C)NC(=O)[C@H](CC(C)C)NC(=O)[C@H](CCCNC(=N)N)NC(=O)[C@H](CCC(N)=O)NC(=O)[C@@H](NC(=O)[C@H](C)NC(=O)[C@@H]1CSSC[C@H](NC(=O)CC[C@H](NC(=O)CCCCCCCCCCCCCCCCCCC(=O)O)C(=O)O)C(=O)N[C@@H](CC(N)=O)C(=O)N[C@@H]([C@@H](C)O)C(=O)N[C@@H](C)C(=O)N[C@@H]([C@@H](C)O)C(=O)N1)[C@@H](C)O)C(=O)N[C@@H](CC(C)C)C(=O)N1CCC[C@H]1C(=O)N1CCC[C@H]1C(=O)N[C@H](C(=O)N[C@@H](CC(N)=O)C(=O)N[C@H](C(=O)NCC(=O)N[C@@H](CO)C(=O)N[C@@H](CC(N)=O)C(=O)N[C@H](C(=O)N[C@@H](Cc1ccc(O)cc1)C(N)=O)[C@@H](C)O)C(C)C)[C@@H](C)O` [compound 28] ({C20 diacid-γGlu}-CNTATCATQRLAEFLHHSSNNFGPILPPTNVGSNTY-NH2; disulfide 1-6 (inferred); C-terminus assumed), the “Food intake reduction 0-24 h 3 nmol/kg (%)” value (0-24 h) was 39%. Further, under “24-48 h”, the “Food intake reduction 24-48 h 3 nmol/kg (%)” value was 36%.
